Results from patent US8980846B2, “Composition containing styraxlignolide A or the aglycone thereof as an active ingredient for preventing or treating asthma” (Korea Research Institute of Bioscience and Biotechnology, priority 2010, dated 2015).
Like-named read-outs stand apart in the source and are kept apart here.

Experiments:
reactive oxygen species = experiment: Reactive oxygen species generation in bronchoalveolar lavage fluid (2,7-dichlorofluorescein diacetate); assay type: in vivo, Balb/c female mice; set-up: dose or concentration left out as unconfirmed; conditions: asthma-induced mice, styraxlignolide A study, 1 hour prior to ovalbumin inhalation
Procedure: To prepare bronchial asthma-induced experimental animals, six-week-old Balb/c female mice of mean weight about 20 g were used. After one week of adaptation, individuals which had no observed abnormality on a basic physical examination were targeted. 200 μL of phosphate buffered saline (PBS)(pH 7.4) in which 2 mg of aluminum hydroxide (A8222, Sigma, St. Louis, Mo.) and 20 μg of ovalbumin (A5503, Sigma, St. Louis, Mo.) were suspended was injected into the peritoneal cavity at two-week intervals to result in sensitization. On days 28 to 30 after the first intraperitoneal administration of ovalbumin, inhalation challenge was performed for 30 min with 1% ovalbumin using an ultrasonic atomizer. 24 hours after the last antigen administration, airway hyperresponsiveness was measured. […]
To measure the amount of generated reactive oxygen species caused by administration of styraxlignolide A, some bronchoalveolar lavage fluid of each individual in <Example 2> was washed with PBS, and 10 μM 2,7-dichlorofluorescein diacetate (35845, Sigma, St. Louis, Mo.) was added thereto and bronchoalveolar lavage fluid was allowed to stand still in a room temperature dark room for 10 min, and the amount of generated reactive oxygen species was measured by a spectrofluorometer (Ex=480 nm, Em=522 nm).

[1] = system: fibrosis in subsegmental bronchi; experiment: Fibrosis in subsegmental bronchi (Masson's trichrome staining); assay type: in vivo, Balb/c female mice; conditions: asthma-induced mice, styraxlignolide A study; 1 hour prior to ovalbumin inhalation
Procedure: (§1) To prepare bronchial asthma-induced experimental animals, six-week-old Balb/c female mice of mean weight about 20 g were used. After one week of adaptation, individuals which had no observed abnormality on a basic physical examination were targeted. 200 μL of phosphate buffered saline (PBS)(pH 7.4) in which 2 mg of aluminum hydroxide (A8222, Sigma, St. Louis, Mo.) and 20 μg of ovalbumin (A5503, Sigma, St. Louis, Mo.) were suspended was injected into the peritoneal cavity at two-week intervals to result in sensitization. On days 28 to 30 after the first intraperitoneal administration of ovalbumin, inhalation challenge was performed for 30 min with 1% ovalbumin using an ultrasonic atomizer. 24 hours after the last antigen administration, airway hyperresponsiveness was measured. After 24 hours, a lethal dose of pentobarbital (Entobar®, Hanlim Pharm Co., Ltd.) was administered, body weight measurement and bronchotomy were performed, and bronchoalveolar lavage was performed with a total 1.2 mL of physiological saline, and then, samples were collected. […] Eight white mice were used for each group. Experimental groups for homoegonol were a group (hE7.5) in which animals were orally administered with 7.5 mg/kg homoegonol 1 hour prior to ovalbumin inhalation, a group (hE15) in which animals were orally administered with 15 mg/kg homoegonol 1 hour prior to ovalbumin inhalation, and a group (hE30) in which animals were orally administered with 30 mg/kg homoegonol 1 hour prior to ovalbumin inhalation, and five white mice were used for each group.

[2] = system: airway hyperresponsiveness; experiment: Airway hyperresponsiveness, Penh by one chamber plethysmography after methacholine inhalation; assay type: in vivo, Balb/c female mice; conditions: asthma-induced mice; for Penh values: homoegonol study, 30 mg/kg PO
Procedure: as §1, with “Experimental groups for homoegonol were a group (hE7.5) in which animals were orally administered with 7.5 mg/kg homoegonol 1 hour prior to ovalbumin inhalation, a group (hE15) in which animals were orally administered with 15 mg/kg homoegonol 1 hour prior to ovalbumin inhalation, and a group (hE30) in which animals were orally administered with 30 mg/kg homoegonol 1 hour prior to ovalbumin inhalation, and five white mice were used for each group.” left out
The effect of styraxlignolide A on airway hyperresponsiveness caused by asthma occurrence was examined by measuring airway resistance with one chamber plethysmography (All medicus, Seoul, Republic of Korea) and degree of airway resistance was assessed by measuring Penh (enhanced pause) values. The baseline value was measured under a normal respiratory condition, and then, PBS was inhaled using an ultrasonic atomizer for 3 min, and Penh values were measured over 3 min. […] Louis, Mo.) which is used in general methods for diagnosis of bronchial asthma were inhaled and Penh values were measured. Penh value is shown in the following Equation 1, and the resulting Penh value was expressed as a percent increase in Penh after inhalation of each concentration of methacholine. The baseline Penh (saline challenge) was expressed as 100%.
Te: expiratory time (sec), the time from inspiration to the next inspiration
RT: relaxation time, the elapsed time between the beginning of the expiration and the moment when the remaining 30% of the tidal volume has been reached during expiration
PEF: Peak expiration flow
PIF: Peak inspiration flow
To examine the effect of homoegonol on airway hyperresponsiveness caused by asthma occurrence, Penh value was measured according to the method in <Experimental Example 2>.

[3] = system: alanine aminotransferase (ALT) and aspartate aminotransferase (AST) in serum; assay type: in vivo
Procedure: as §1
To examine liver toxicity of styraxlignolide A, a commercially available ELISA kit (BECKMAN Coulter, Inc., Fullerton, Calif., USA) was used to measure alanine aminotransferase (ALT) and aspartate aminotransferase (AST) in serum.

goblet cells = experiment: Ratio of goblet cells to bronchial epithelial cells (PAS staining); assay type: in vivo, Balb/c female mice; conditions: asthma-induced mice
Procedure: as §1
Lungs removed from each individual were subjected to conventional formalin fixation and paraffin embedding, and permanent section slides of 4 μm thickness were prepared, and periodic acid Schiff (PAS) staining was performed to determine goblet cells. Proliferation of goblet cells was assessed by measuring the ratio of goblet cells to bronchial epithelial cells.
In accordance with the method in <Experimental Example 7-2>, the ratio of goblet cells which were determined by periodic acid-Schiff staining to bronchial epithelial cells were measured to assess proliferation of goblet cells.

[4] = system: inflammatory cells in the airway mucosa; experiment: Inflammatory cell infiltration in airway mucosa, inflammatory index (H&E staining); assay type: in vivo, Balb/c female mice; conditions: asthma-induced mice, styraxlignolide A study; 30 mg/kg PO 1 hour prior to ovalbumin inhalation; scale 0-4
ovalbumin-specific IgE = experiment: IgE levels in serum and bronchoalveolar lavage fluid (ELISA); assay type: in vivo, Balb/c female mice; conditions: asthma-induced mice
Procedure: as §1
To measure serum and bronchoalveolar lavage fluid ovalbumin-specific IgE levels caused by administration of styraxlignolide A, an immunoenzyme technique was used. 20 μg/mL of ovalbumin was dissolved in a 0.1 M NAHCO3 buffer (pH 8.3), and was placed into a 96-well flat bottom ELISA plate to be coated at 4° C. overnight. Non-specific binding was blocked with PBS containing 1% bovine serum albumin, and a serum sample was diluted 1:400 and was allowed to react at room temperature for 2 hours. Then, the plate was washed well, and anti-mouse IgE monoclonal antibody was diluted 1:300 and was allowed to react for 2 hours. Then, HRP-conjugated goat anti-rat IgG polyclonal antibody which was coupled to peroxidase was diluted 1:4000 and was allowed to react at room temperature for 1 hour, and then, was washed. For color development, 3,3′,5,5′-tetramethylbezidine substrate was allowed to react, and the spectroscopic absorbance was measured at 650 nm.
To measure IgE levels which are correlated with severity of asthma to examine the effect of homoegonol on asthma, IgE levels in serum and bronchoalveolar lavage fluid were measured according to the method in <Experimental Example 4>.

[5] = Body weight in asthma-induced mice; assay type: in vivo, Balb/c female mice
Procedure: as §1
(§2) To determine an effect of styraxlignolide A on reduction in body weight in asthma-induced mice, body weight of each mouse prepared in Example 2 was measured. For statistical analyses for all measurements, means and standard errors (mean±S.E.) according to a number of variables were calculated, and comparison between each group was analyzed by performing a Mann-whitney U test using SPSS 10.0. Statically significance was accepted at p<0.05.
as §2, with “homoegonol” for “styraxlignolide A”

[6] = system: inflammatory cells in bronchoalveolar lavage fluid; experiment: Inflammatory cell counts in bronchoalveolar lavage fluid (Diff-Quick staining); assay type: in vivo, Balb/c female mice; conditions: asthma-induced mice, styraxlignolide A study
[7] = system: inflammatory cells in bronchoalveolar lavage fluid; experiment: as above; assay type: in vivo, Balb/c female mice; conditions: asthma-induced mice
Procedure: as §1
Bronchoalveolar lavage fluid was collected from individuals of each experimental group in <Example 2> and right after the collection, fluid was stained with trypan blue. The number of total cells except dead cells was calculated using a hemocytometer. Then, Diff-Quick staining (Sysmex, Swizerland) was performed after smear preparation with Cytospin II, and eosinophils and other inflammatory cells were differentially counted.
To examine the effect of homoegonol on asthma, variation in the numbers of asthma-related inflammatory cells was measured according to the method in <Experimental Example 3>.

TGF-β1 = TGF-β1 in bronchoalveolar lavage fluid; assay type: in vivo, Balb/c female mice; conditions: asthma-induced mice, homoegonol study; 30 mg/kg PO
Procedure: as §1
(§3) To examine the effect of homoegonol on airway remodeling, generation of TGF-β1 and IL-17 in bronchoalveolar lavage fluid was measured.

IL-17 = IL-17 in bronchoalveolar lavage fluid; assay type: in vivo, Balb/c female mice; conditions: asthma-induced mice, homoegonol study; 30 mg/kg PO
Procedure: as §1, §3

[8] = asthma-induced mice, styraxlignolide A study, 30 mg/mL PO 1 hour prior to ovalbumin inhalation
[9] = homoegonol study, 30 mg/kg PO, bronchoalveolar lavage fluid
[10] = homoegonol study, 30 mg/kg PO, bronchoalveolar lavage fluid, 30 mg/kg
[11] = styraxlignolide A study, 30 mg/kg PO 1 hour prior to ovalbumin inhalation

## COc1ccc(-c2cc3cc(CCCO[C@@H]4OC(CO[C@@H]5OC[C@@H](O)C(O)C5O)[C@@H](O)C(O)C4O)cc(OC)c3o2)cc1OC (stereo partly drawn) [styraxlignolide A]
Reactive oxygen species
  generated amount of reactive oxygen species, reduction compared to the asthma-induced group: 27.90%
[1]
  area of a fibrosis stained region per 100 μm of a basement membrane perimeter: 495.69±98.62 μm^2
[2]; styraxlignolide A study, 30 mg/mL PO 1 hour prior to ovalbumin inhalation, methacholine 12.5, 25, or 50 mg/mL
  Penh (enhanced pause) values compared to the comparative groups: reduced Penh values compared to the comparative groups
[3]; [8]
  serum ALT: 168.67±15.56 IU/L
  serum AST: 245.33±12.87 IU/L
Goblet cells; styraxlignolide A study, 1 hour prior to ovalbumin inhalation
  ratio of goblet cells to bronchiolar epithelial cells: 29.52±8.02%
[4]
  peribronchiolar inflammatory index: 1.17±0.2
ovalbumin-specific IgE; styraxlignolide A study, 1 hour prior to ovalbumin inhalation, bronchoalveolar lavage fluid
  Ovalbumin-specific IgE level in bronchoalveolar lavage fluid: 15.4 ± 2.18 ng/mL
ovalbumin-specific IgE; styraxlignolide A study, 1 hour prior to ovalbumin inhalation, serum, difference to asthma-induced group not significant
  serum ovalbumin-specific IgE level: 382 ± 60.60 ng/mL
[5]; styraxlignolide A study, 30 mg/mL PO 1 hour prior to ovalbumin inhalation
  body weight: 21.04 ± 0.34 g
[6]; 30 mg/mL PO 1 hour prior to ovalbumin inhalation
  numbers of eosinophils in bronchoalveolar lavage fluid: 20.77±2.34
[6]; 1 hour prior to ovalbumin inhalation
  numbers of total inflammatory cells in bronchoalveolar lavage fluid: 147.83±12.61

## CC(C)(O)c1ccccc1CC[C@@H](SCC1(CC(=O)O)CC1)c1cccc(/C=C/c2ccc3ccc(Cl)cc3n2)c1 [Monte, montelukast, reference compound]
[7]; [9]
  Number of cells, Other inflammatory cells: 48.84 ± 3.7377 ×10^3 cells/mouse
[7]; [10]
  Number of cells, Eosinophils: 19.12±9.17 ×10^3 cells/mouse
  Number of cells, Total inflammatory cells: 67.96±15.0532 ×10^3 cells/mouse
[7]; [11]
  numbers of total inflammatory cells in bronchoalveolar lavage fluid: 193.29±19.99
[2]; methacholine 0 mg/ml
  Penh values: 0.6071 ± 0.0618
[2]; methacholine 12.5 mg/ml
  Penh values: 1.2979 ± 0.1537
[2]; methacholine 25 mg/ml
  Penh values: 1.4748 ± 0.1639
[2]; methacholine 50 mg/ml
  Penh values: 2.3069 ± 0.4225
[3]; mouse, in vivo, po, 30 mg/kg
  serum ALT: 122.50±14.94 IU/L
  serum AST: 205.00±27.17 IU/L
TGF-β1
  TGF-β1 concentrations in bronchoalveolar lavage fluid: 215.9375 ± 13.4334 pg/mL
Goblet cells; homoegonol study, 30 mg/kg PO, 30 mg/kg
  Goblet cells %/bronchial epithelial cell unit: 34.6476±11.5492%
IL-17
  IL-17 concentrations in bronchoalveolar lavage fluid: 15.8409 ± 2.5686 pg/mL
ovalbumin-specific IgE; [9]
  Total IgE level in bronchoalveolar lavage fluid: 104.7447 ± 9.7295 ng/mL
ovalbumin-specific IgE; homoegonol study, 30 mg/kg PO, serum, Table 2
  Total serum IgE level: 16.22 ± 2.6329 µg/mL
[5]; homoegonol study, 30 mg/kg PO 1 hour prior to ovalbumin inhalation
  body weight: 21.08 ± 0.57 g
[5]; [11]
  body weight: 21.04 ± 0.30 g
[6]; 30 mg/kg PO 1 hour prior to ovalbumin inhalation
  numbers of eosinophils in bronchoalveolar lavage fluid: 60.67±6.58
